Measured values published in patent publication US20220184143A1, “COMPOSITIONS AND METHODS OF MODULATING CASOTRANSMITTER SIGNALING” (CASE WESTERN RESERVE UNIVERSITY, priority 2019, published 2022).

What was measured:
AGO2 [1] = biological target: T1, AGO2 (Homo sapiens, UniProt Q9UKV8); assay: AGO2 immunoblot following SNO-RAC in HEK293 cells; assay type: cell-based; set-up: endogenous in cells; host or cells: HEK293
Description: S-nitrosylated proteins were isolated by SNO-RAC as described. In brief, cells were lysed in HEN buffer additionally containing 1% NP-40, 50 mM NaCl and protease inhibitors. Free cysteines were blocked with S-Methyl methanethiosulfonate (MMTS). After acetone precipitation and multiple 70% acetone washes, proteins were re-suspended in HEN buffer containing 1% SDS. 50 μl thiopropyl Sepharose 6B resin (GE, Chicago, Ill.) and 50 mM sodium ascorbate were added, followed by rotation in the dark for 4 hr at room temperature. Following multiple washes, the bound proteins were eluted in 2×SDS-PAGE loading buffer containing 10% β-mercaptoethanol. Following separation on reducing pre-cast 4-20% SDS-PAGE gels (Bio-Rad Laboratories, Hercules, Calif.), individual SNO-proteins were detected by Western blotting using specific antibodies (anti-FLAG, anti-myc, anti-ALG-1, anti-AGO2, anti-GW182) or the gel was stained using the SilverQuest™ silver staining kit (ThermoFisher Scientific, Waltham, Mass.) or Imperial™ Protein Stain (ThermoFisher Scientific, Waltham, Mass.), per manufacturer instructions.
Transfected HEK293 or HeLa cells were cultured at 37° C. in 15 cm tissue culture-treated dishes. They were then treated with either 500 μM DETA-NOate (t1/2=20 hr) for 16 hours, 100 μM CysNO for 10 min, or 200 μM dipropylenetriamine (DPTA)-NONOate (Cayman Chemicals, Ann Arbor, Mich.) for 6 hours. […]

AGO2 and GW182 = biological target: T2, AGO2 and GW182 (Homo sapiens, UniProt Q9UKV8); assay: Co-immunoprecipitation of AGO2 and GW182 in HEK293 cells; assay type: cell-based
T2 construct: host or cells: HEK293
Description: Transfected HEK293 or HeLa cells were cultured at 37° C. in 15 cm tissue culture-treated dishes. They were then treated with either 500 μM DETA-NOate (t1/2=20 hr) for 16 hours, 100 μM CysNO for 10 min, or 200 μM dipropylenetriamine (DPTA)-NONOate (Cayman Chemicals, Ann Arbor, Mich.) for 6 hours. Cells were washed once with DPBS without calcium chloride and magnesium chloride from Gibco® (Life Technologies, Carlsbad, Calif.) and incubated on ice for 10 minutes in IP lysis/wash buffer (ThermoFisher Scientific, Waltham, Mass.) with added EDTA-free protease inhibitor tablet (Roche, Basel, Switzerland). This was followed by centrifugation at 14,000 g for 10 minutes to collect the supernatant. The lysates were then used for immunoprecipitation experiments.
For HEK293 cells, all steps were performed either on ice or in the cold room at 4° C. Immunoprecipitations (IP) were performed with 3 mg of total lysate that was pre-cleared using a Pierce™ control agarose resin (ThermoFisher Scientific, Waltham, Mass.), after which 10 μg of IP antibody was added, and samples were incubated overnight at 4° C. with rotation. The next day, 30 μl of protein A/G Sepharose (ThermoFisher Scientific, Waltham, Mass.) was added and the samples were incubated for 2 hours at 4° C. […] The eluates were neutralized by adding 3 μl of 1M Tris-HCl, pH 8.0 and analyzed by western blotting. […]

AGO2 [2] = biological target: T3, AGO2 (Homo sapiens, UniProt Q9UKV8, C691S); assay: let-7 luciferase reporter miRNA activity assay in HeLa cells; assay type: cell-based; conditions: C691S AGO2, Hmga2 3'UTR reporter
T3 construct: expressed in transfected cells; host or cells: HeLa
Description: (§1) 0.5×10^5 cells/well Hela cells were plated in wells of 24 well dishes. They were transiently transfected the next day with 2 μg of either WT-AGO2 or C691S-AGO2, plus 100 ng of either Hmga2 3′UTR-WT luciferase (Luc-wt) or Hmga2 3′UTR-mutant7 luciferase (Luc-m7) control. 100 ng pMax-GFP was also co-transfected to normalize for transfection efficiency. Transfections were carried out using Lipofectamine® 2000 transfection reagent (ThermoFisher Scientific, Waltham, Mass.). Six hours after transfection, the NO donor DETA-NONOate (Cayman Chemicals, Ann Arbor, Mich.) was added at 500 μM. The cells were harvested 24 hours post-transfection, using 1× Passive Lysis Buffer (Promega, Madison, Wis.). Renilla luciferase activity was measuredusing the Renilla Luciferase Assay System (Promega, Madison, Wis.) and a Veritas™ microplate luminometer (Turner BioSystems, Sunnyvale, Calif.) and normalized to GFP readings measured using a BMG FluoStar Galaxy microplate reader. Hmga2 3′UTR WT luciferase (Luc-wt) and Hmga2 3′UTR m7 luciferase (Luc-m7) were gifts from David Bartel (Addgene plasmid #14785 and #14788, respectively)).

[3] = cited from earlier work
AGO2 [4] = biological target: T1, AGO2; assay: let-7 luciferase reporter miRNA activity assay in HeLa cells; assay type: cell-based; set-up: expressed in transfected cells; host or cells: HeLa; conditions: WT AGO2, Hmga2 3'UTR reporter
Description: as §1

T1 sequence (Q9UKV8 whole entry): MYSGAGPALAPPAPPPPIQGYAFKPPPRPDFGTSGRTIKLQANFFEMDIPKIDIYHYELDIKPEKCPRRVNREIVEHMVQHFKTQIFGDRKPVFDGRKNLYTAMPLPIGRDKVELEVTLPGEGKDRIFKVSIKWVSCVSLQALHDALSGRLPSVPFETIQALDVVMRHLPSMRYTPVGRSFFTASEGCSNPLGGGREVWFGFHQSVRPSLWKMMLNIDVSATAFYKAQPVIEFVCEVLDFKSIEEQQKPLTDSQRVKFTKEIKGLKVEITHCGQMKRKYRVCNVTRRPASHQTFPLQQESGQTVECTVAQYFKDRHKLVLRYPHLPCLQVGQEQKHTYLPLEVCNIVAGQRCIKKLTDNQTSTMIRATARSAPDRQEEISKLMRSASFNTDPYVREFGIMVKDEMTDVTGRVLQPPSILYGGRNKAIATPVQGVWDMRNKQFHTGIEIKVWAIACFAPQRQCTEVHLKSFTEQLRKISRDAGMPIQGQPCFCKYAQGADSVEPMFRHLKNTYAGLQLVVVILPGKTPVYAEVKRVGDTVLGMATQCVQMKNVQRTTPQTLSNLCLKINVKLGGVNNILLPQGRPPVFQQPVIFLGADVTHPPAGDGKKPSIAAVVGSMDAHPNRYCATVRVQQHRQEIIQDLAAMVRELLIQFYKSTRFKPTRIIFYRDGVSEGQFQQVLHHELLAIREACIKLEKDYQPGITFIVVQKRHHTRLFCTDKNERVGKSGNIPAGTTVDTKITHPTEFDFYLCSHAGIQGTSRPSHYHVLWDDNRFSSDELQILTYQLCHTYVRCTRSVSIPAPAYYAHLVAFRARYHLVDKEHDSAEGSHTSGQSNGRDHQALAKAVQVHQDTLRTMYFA
T2 sequence (Q9UKV8 whole entry): as above
T3 sequence (Q9UKV8 whole entry C691S): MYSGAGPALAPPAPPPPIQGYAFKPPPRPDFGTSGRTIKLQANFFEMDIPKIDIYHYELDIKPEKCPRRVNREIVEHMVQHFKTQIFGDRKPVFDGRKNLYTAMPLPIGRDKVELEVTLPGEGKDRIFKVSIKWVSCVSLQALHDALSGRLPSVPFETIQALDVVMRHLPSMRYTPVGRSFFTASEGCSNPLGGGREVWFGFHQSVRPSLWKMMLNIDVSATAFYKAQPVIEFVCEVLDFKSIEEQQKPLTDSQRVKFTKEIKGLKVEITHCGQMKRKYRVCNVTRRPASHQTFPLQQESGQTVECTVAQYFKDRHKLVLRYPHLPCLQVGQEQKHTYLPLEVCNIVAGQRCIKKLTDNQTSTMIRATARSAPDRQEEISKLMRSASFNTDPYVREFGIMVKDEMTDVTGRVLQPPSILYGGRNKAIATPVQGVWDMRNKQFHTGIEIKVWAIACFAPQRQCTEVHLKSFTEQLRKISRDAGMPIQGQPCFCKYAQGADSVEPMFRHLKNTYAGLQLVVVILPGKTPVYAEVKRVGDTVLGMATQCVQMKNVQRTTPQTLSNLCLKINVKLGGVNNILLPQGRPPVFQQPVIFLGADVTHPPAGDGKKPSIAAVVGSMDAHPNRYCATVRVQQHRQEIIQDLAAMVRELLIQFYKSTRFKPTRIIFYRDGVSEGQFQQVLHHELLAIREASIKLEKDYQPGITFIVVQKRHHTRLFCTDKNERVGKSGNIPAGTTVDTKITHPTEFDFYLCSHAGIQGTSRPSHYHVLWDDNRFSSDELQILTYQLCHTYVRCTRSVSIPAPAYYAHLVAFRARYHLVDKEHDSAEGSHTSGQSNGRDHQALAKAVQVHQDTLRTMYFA

Row | SMILES | S-nitrosylation of WT AGO2 (AGO2 [1]; HEK293 cells transfected with WT AGO2, 100 μM) | association of WT AGO2 with GW182 (AGO2 and GW182; co-immunoprecipitation, transfected HEK293 cells) | interaction between endogenous AGO2 and GW182 (AGO2 and GW182; cultured mammalian cells) | mutant C691S AGO2 activity (AGO2 [2]) | S-nitrosylation of AGO2 by endogenous eNOS (AGO2 [1]; HEK293 cells, 500 μM) | t1/2 [3] [h] | WT AGO2 repression of luciferase target (AGO2 [4])
1 | N[C@@H](CSN=O)C(=O)O [CysNO, S-nitrosocysteine] | strongly S-nitrosylated |  |  |  |  |  | 
2 | NCCN(CCN)/[N+]([O-])=N/O [DETA-NO, DETA-NONOate] |  | strongly inhibited | inhibited | little effect | enhanced | 20 | repressed its target poorly
